Measured values taken from article PMC4992173, “Divergent synthesis and identification of the cellular targets of deoxyelephantopins” (Nature Communications, 2016).

Target: T1, Nucleoporin p54 (NUP54) (Homo sapiens, UniProt Q7Z3B4)
T1 construct: endogenous in cells; host or cells: MCF7
Experiment: In situ competitive profiling in live MCF7 cells (LFQ): NUP54
Assay type: cell-based
Conditions: protein NUP54, 4 h, then 10 µM 24c, n=4
Description: In our efforts to determine the direct molecular targets of deoxyelephantopin we first performed a gel-based competitive in situ proteomic profiling assay[41] […] While the greater conformational flexibility of probe 24c could potentially lead to more promiscuous target engagement relatively to deoxyelephantopin, it was favoured based on the fact that an alkyne moiety appended to the rigid scaffold of deoxyelephantopin may hinder some of its interactions. MCF7 cells were pretreated with various concentrations of deoxyelephantopin for 4 h, harvested, lysed and the lysates were treated with the fluorogenic probe 24c-Cy3 (10 μM; Supplementary Fig. 10). […] Furthermore, cells were pretreated with 20 μM concentration of deoxyelephantopin or 24c and the proteomic profiles were compared (Fig. 6b, Supplementary Fig. 11). Multiple bands were detected that were equally competed by both DEP and 24c, thus again confirming that 24c can be used as an acceptable clickable analogue of deoxyelephantopin in pulldown assays. Having established the optimal labelling conditions by SDS–PAGE, we next carried out a mass spectrometry-based competitive profiling assay[42] coupled with the method of stable isotope labelling of amino acids in culture (SILAC)[43]. […]
Figure 6 Proteome-wide identification of deoxyelephantopin targets. […] Quantification was performed using label-free quantification (LFQ) method (n=4). […]

T1 sequence (Q7Z3B4 whole entry): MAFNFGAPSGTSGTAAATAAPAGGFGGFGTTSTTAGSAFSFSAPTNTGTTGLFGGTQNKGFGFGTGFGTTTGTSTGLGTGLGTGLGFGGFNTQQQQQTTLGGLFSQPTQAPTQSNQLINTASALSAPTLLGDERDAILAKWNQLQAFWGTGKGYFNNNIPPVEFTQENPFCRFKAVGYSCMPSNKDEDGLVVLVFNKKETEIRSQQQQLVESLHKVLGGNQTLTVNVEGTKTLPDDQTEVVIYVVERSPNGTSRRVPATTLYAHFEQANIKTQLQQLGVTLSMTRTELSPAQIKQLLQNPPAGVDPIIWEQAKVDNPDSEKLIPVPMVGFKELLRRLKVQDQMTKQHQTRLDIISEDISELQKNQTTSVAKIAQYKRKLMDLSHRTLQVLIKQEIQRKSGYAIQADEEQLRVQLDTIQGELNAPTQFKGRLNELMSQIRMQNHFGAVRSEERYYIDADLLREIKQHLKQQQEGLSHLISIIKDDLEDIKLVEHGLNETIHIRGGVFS

C=C(C)C(=O)O[C@H]1CC2=C[C@@H](C/C(C)=C/[C@H]3OC(=O)C(=C)[C@H]13)OC2=O [deoxyelephantopin]
LFQ ratio 20 µM Deoxyelephantopin/DMSO with 24c: 0.24
